IC50 data for 19 compounds are collected here from patent US12331040B2 (Karyopharm Therapeutics Inc., priority 2013, dated 2025).

Common to all, as to test: MTT cell proliferation assay
Holding throughout (assay type): cell-based

One assay has as its system MS751 cells. Conditions: Homo sapiens, MS751, MS751 cells, approximately 64-72 hours incubation. The protocol:
(§1) The MTT cell proliferation assay was used to study the cytotoxic properties of the compounds. The assay was performed according to the method described by Roche Molecular Biochemicals, with minor modifications. The assay is based on the cleavage of the tetrazolium salt, MTT, in the presence of an electron-coupling reagent. The water-insoluble formazan salt produced must be solubilized in an additional step. Cells grown in a 96-well tissue culture plate were incubated with the MTT solution for approximately 4 hours. After this incubation period, a water-insoluble formazan dye formed. After solubilization, the formazan dye was quantitated using a scanning multi-well spectrophotometer (ELISA reader). […] The cells were seeded at 5,000-10,000 cells in each well of 96-well plate in 100 μL of fresh culture medium and were allowed to attach overnight. The stock solutions of the compounds were diluted in 100 μL cell culture medium to obtain eight concentrations of each test compound, ranging from 1 nM to 30 μM. […] All optical densities were measured at 490 nm using a Vmax Kinetic Microplate Reader (Molecular Devices). In most cases, the assay was performed in duplicate and the results were presented as a mean percent inhibition to the negative control±SE. The following formula was used to calculate the percent of inhibition: Inhibition (%)=(1−(ODo/OD))×100.
(§2) The compounds were tested against MS751, Z138 and 3T3 cells. The MS751 cell line is derived from a metastasis to lymph node of human cervix from a patient diagnosed with squamous cell carcinoma of the cervix. The Z138 cell line is a mature B-cell acute lymphoblastic leukemia cell line derived from a patient with chronic lymphocytic leukemia. 3T3 cells are standard fibroblast cells; they were originally isolated from Swiss mouse embryo tissue.

A further assay deals with 3T3 cells. As to conditions: Mus musculus, NIH3T3, approximately 64-72 hours incubation. On the procedure:
as §1, §2

Another assay concerns Z138 cells. Conditions: Homo sapiens, Z-138, Z138 cells, approximately 64-72 hours incubation. On the procedure:
as §1, §2

[1] abbreviates: read-out: MTT Assay IC50 MS-751.
Setting [2] is: read-out: MTT Assay IC50, MS-751.
[3] abbreviates: read-out: MTT Assay IC50, Z-138.

Where two headings read alike, the source gives them in different places. Bounds are passed on as bounds.

With `COc1cc(-c2ccc(C(=O)N3CCOCC3)cn2)cc2cc(CNC(=O)/C=C/c3ccc(N)nc3)oc12` [Compound 640, (E)-3-(6-aminopyridin-3-yl)-N-((7-methoxy-5-(5-(morpholine-4-carbonyl)pyridin-2-yl)benzofuran-2-yl)methyl)acrylamide], the IC50 (usually the concentration that gives 50% inhibition) in the assay with MS751 cells (setting [1]) was less than 0.1 µM; in the assay with 3T3 cells (read-out: MTT Assay IC50 3T3), greater than 10 µM; with Z138 cells (read-out: MTT Assay IC50 Z-138), less than 0.1 µM.
With `Nc1ccc(/C=C/C(=O)NCc2cc3cc(-c4ccc(C(=O)N5CC6(COC6)C5)cn4)cc(C(F)(F)F)c3o2)cn1` [Compound 625, (E)-N-((5-(5-(2-oxa-6-azaspiro[3.3]heptane-6-carbonyl)pyridin-2-yl)-7-(trifluoromethyl)benzofuran-2-yl)methyl)-3-(6-aminopyridin-3-yl)acrylamide], the IC50 is less than 0.1 µM in the assay on MS751 cells (setting [1]), 0.1 to 5 µM in the assay on 3T3 cells (read-out: MTT Assay IC50 3T3) and less than 0.1 µM with Z138 cells (read-out: MTT Assay IC50 Z-138).
For the compound `CN1CCN(C(=O)c2ccc(-c3cc(Cl)c4oc(CNC(=O)/C=C/c5ccc(N)nc5)cc4c3)cc2)CC1` [Compound 576, (E)-3-(6-aminopyridin-3-yl)-N-((7-chloro-5-(4-(4-methylpiperazine-1-carbonyl)phenyl)benzofuran-2-yl)methyl)acrylamide], the figures for the IC50 with MS751 cells (setting [1]), in the assay on 3T3 cells (read-out: MTT Assay IC50 3T3) and with Z138 cells (read-out: MTT Assay IC50 Z-138) were 0.1 to 5 µM, greater than 10 µM and 0.1 to 5 µM, respectively.
As for `Nc1ccc(/C=C/C(=O)NCc2cc3cc(-c4ccc(C(=O)N5CC(F)(F)C5)cc4)cc(Cl)c3o2)cn1` [Compound 508, (E)-3-(6-aminopyridin-3-yl)-N-((7-chloro-5-(4-(3,3-difluoroazetidine-1-carbonyl)phenyl)benzofuran-2-yl)methyl)acrylamide], the IC50 with MS751 cells (setting [1]) was 0.1 to 5 µM; with 3T3 cells (read-out: MTT Assay IC50 3T3), greater than 10 µM; in the assay on Z138 cells (read-out: MTT Assay IC50 Z-138), 0.1 to 5 µM.
For the compound `Nc1ccc(/C=C/C(=O)NCc2cc3cc(-c4ccc(C(=O)N5CCC(F)CC5)cc4)cc(Cl)c3o2)cn1` [Compound 598, (E)-3-(6-aminopyridin-3-yl)-N-((7-chloro-5-(4-(4-fluoropiperidine-1-carbonyl)phenyl)benzofuran-2-yl)methyl)acrylamide], the IC50 in the assay on MS751 cells (setting [1]) was 0.1 to 5 µM; in the assay with 3T3 cells (read-out: MTT Assay IC50 3T3), greater than 10 µM; in the assay on Z138 cells (read-out: MTT Assay IC50 Z-138) it was 0.1 to 5 µM.
Take `Nc1ccc(/C=C/C(=O)NCc2cc3cc(-c4cc(C(=O)N5CCOCC5)c(F)cn4)cc(Cl)c3o2)cn1` [Compound 588, (E)-3-(6-aminopyridin-3-yl)-N-((7-chloro-5-(5-fluoro-4-(morpholine-4-carbonyl)pyridin-2-yl)benzofuran-2-yl)methyl)acrylamide]: the IC50 in the assay with MS751 cells (setting [1]) was less than 0.1 µM; with 3T3 cells (read-out: MTT Assay IC50 3T3) it was 0.1 to 5 µM; with Z138 cells (read-out: MTT Assay IC50 Z-138), less than 0.1 µM.
As for `Nc1ccc(/C=C/C(=O)NCc2cc3cc(-c4ncc(C(=O)N5CCNCC5)cn4)cc(Cl)c3o2)cn1` [Compound 649, (E)-3-(6-aminopyridin-3-yl)-N-((7-chloro-5-(5-(piperazine-1-carbonyl)pyrimidin-2-yl)benzofuran-2-yl)methyl)acrylamide], the 50% inhibitory concentration (IC50) with MS751 cells (setting [1]) was 0.1 to 5 µM; in the assay on 3T3 cells (read-out: MTT Assay IC50 3T3) it was greater than 10 µM; in the assay on Z138 cells (read-out: MTT Assay IC50 Z-138), 0.1 to 5 µM.
Take `Nc1ccc(/C=C/C(=O)NCc2cc3cc(-c4ccc(F)c(C(=O)N5CCOCC5)n4)cc(Cl)c3o2)cn1` [Compound 581, (E)-3-(6-aminopyridin-3-yl)-N-((7-chloro-5-(5-fluoro-6-(morpholine-4-carbonyl)pyridin-2-yl)benzofuran-2-yl)methyl)acrylamide]: the values for the half-inhibitory concentration (IC50) in the assay on MS751 cells (setting [1]), with 3T3 cells (read-out: MTT Assay IC50 3T3) and with Z138 cells (read-out: MTT Assay IC50 Z-138) were less than 0.1 µM, greater than 10 µM and less than 0.1 µM, respectively.
On to `O=C(/C=C/c1cccnc1)NCc1cc2cc(-c3ccc(S(=O)(=O)N4CCC(F)(F)CC4)cc3)cc(C(F)(F)F)c2o1` [Compound 680, (E)-N-((5-(4-((4,4-difluoropiperidin-1-yl)sulfonyl)phenyl)-7-(trifluoromethyl)benzofuran-2-yl)methyl)-3-(pyridin-3-yl)acrylamide], for which the IC50 in the assay with MS751 cells (setting [2]) was 0.1 to 5 µM; in the assay with 3T3 cells (read-out: MTT Assay IC50, 3T3), greater than 10 µM; with Z138 cells (setting [3]) it was 0.1 to 5 µM.
Consider `Nc1ccc(/C=C/C(=O)NCc2cc3cc(-c4ccc(Oc5ccc(F)cc5)cn4)cc(-c4ccc(F)cc4)c3o2)cn1` [Compound 745, (E)-3-(6-aminopyridin-3-yl)-N-((5-(5-(4-fluorophenoxy)pyridin-2-yl)-7-(4-fluorophenyl)benzofuran-2-yl)methyl)acrylamide], for which the IC50 in the assay on MS751 cells (setting [2]) was 0.1 to 5 µM; in the assay on 3T3 cells (read-out: MTT Assay IC50, 3T3), greater than 10 µM; in the assay with Z138 cells (setting [3]), 0.1 to 5 µM.
For the compound `Nc1ccc(/C=C/C(=O)NCc2cc3cc(-c4ncc(C(=O)N5CCNCC5)cn4)cc(C(F)(F)F)c3o2)cn1` [Compound 590, (E)-3-(6-aminopyridin-3-yl)-N-((5-(5-(piperazine-1-carbonyl)pyrimidin-2-yl)-7-(trifluoromethyl)benzofuran-2-yl)methyl)acrylamide], the IC50 in the assay with MS751 cells (setting [1]) is 0.1 to 5 µM; with 3T3 cells (read-out: MTT Assay IC50 3T3) it was greater than 10 µM; in the assay on Z138 cells (read-out: MTT Assay IC50 Z-138), 0.1 to 5 µM.
Turning to `O=C(/C=C/c1cccnc1)NCc1cc2cc(-c3ccc(C(=O)N4CCC(F)(F)CC4)cn3)cc(OC(F)(F)F)c2o1` [Compound 752, (E)-N-((5-(5-(4,4-difluoropiperidine-1-carbonyl)pyridin-2-yl)-7-(trifluoromethoxy)benzofuran-2-yl)methyl)-3-(pyridin-3-yl)acrylamide], the IC50 with MS751 cells (setting [2]) is less than 0.1 µM; with 3T3 cells (read-out: MTT Assay IC50, 3T3), less than 0.1 µM; with Z138 cells (setting [3]), less than 0.1 µM.
For the compound `O=C(/C=C/c1cccnc1)NCc1cc2cc(-c3ccc(C(=O)N4CCC(F)(F)CC4)cn3)cc(-c3cc4ccccc4o3)c2o1` [Compound 721, (E)-N-((5′-(5-(4,4-difluoropiperidine-1-carbonyl)pyridin-2-yl)-[2,7′-bibenzofuran]-2′-yl)methyl)-3-(pyridin-3-yl)acrylamide], the IC50 with MS751 cells (setting [2]) is less than 0.1 µM; with 3T3 cells (read-out: MTT Assay IC50, 3T3), less than 0.1 µM; with Z138 cells (setting [3]) it was less than 0.1 µM.
For the compound `Nc1ccc(/C=C/C(=O)NCc2cc3cc(-c4ccc(C(=O)NCc5cccnc5)cn4)cc(C(F)(F)F)c3o2)cn1` [Compound 630, (E)-6-(2-((3-(6-aminopyridin-3-yl)acrylamido)methyl)-7-(trifluoromethyl)benzofuran-5-yl)-N-(pyridin-3-ylmethyl)nicotinamide], the IC50 is less than 0.1 µM in the assay with MS751 cells (setting [1]), 0.1 to 5 µM with 3T3 cells (read-out: MTT Assay IC50 3T3) and less than 0.1 µM in the assay on Z138 cells (read-out: MTT Assay IC50 Z-138).
Turning to `Nc1ccc(/C=C/C(=O)NCc2cc3cc(-c4ccc(S(=O)(=O)N5CC(F)(F)C5)cc4)cc(C(F)(F)F)c3o2)cn1` [Compound 644, (E)-3-(6-aminopyridin-3-yl)-N-((5-(4-(3,3-difluoroazetidin-1-ylsulfonyl)phenyl)-7-(trifluoromethyl)benzofuran-2-yl)methyl)acrylamide], the values for the IC50 in the assay with MS751 cells (setting [1]), with 3T3 cells (read-out: MTT Assay IC50 3T3) and in the assay with Z138 cells (read-out: MTT Assay IC50 Z-138) were 5 to 10 µM, greater than 10 µM and 0.1 to 5 µM, respectively.
Turning to `Nc1ccc(/C=C/C(=O)NCc2cc3cc(-c4ccc(C(=O)N5CC6CCC(C5)O6)cn4)cc(C(F)(F)F)c3o2)cn1` [Compound 632, (E)-N-((5-(5-(8-oxa-3-azabicyclo[3.2.1]octane-3-carbonyl)pyridin-2-yl)-7-(trifluoromethyl)benzofuran-2-yl)methyl)-3-(6-aminopyridin-3-yl)acrylamide], the IC50 with MS751 cells (setting [1]) was 0.1 to 5 µM; in the assay on 3T3 cells (read-out: MTT Assay IC50 3T3) it was greater than 10 µM; in the assay with Z138 cells (read-out: MTT Assay IC50 Z-138), 0.1 to 5 µM.
Consider `Nc1ccc(/C=C/C(=O)NCc2cc3cc(-c4ccc(C(=O)N5CC6(C5)CC(F)(F)C6)cn4)cc(C(F)(F)F)c3o2)cn1` [Compound 661, (E)-3-(6-aminopyridin-3-yl)-N-((5-(5-(6,6-difluoro-2-azaspiro[3.3]heptane-2-carbonyl)pyridin-2-yl)-7-(trifluoromethyl)benzofuran-2-yl)methyl)acrylamide], for which the IC50 is 0.1 to 5 µM in the assay with MS751 cells (setting [2]); greater than 10 µM with 3T3 cells (read-out: MTT Assay IC50, 3T3); 0.1 to 5 µM with Z138 cells (setting [3]).
As for `Nc1ccc(/C=C/C(=O)NCc2cc3cc(-c4ccc(F)c(C(=O)N5CCOCC5)n4)cc(C(F)(F)F)c3o2)cn1` [Compound 579, (E)-3-(6-aminopyridin-3-yl)-N-((5-(5-fluoro-6-(morpholine-4-carbonyl)pyridin-2-yl)-7-(trifluoromethyl)benzofuran-2-yl)methyl)acrylamide], the IC50 was less than 0.1 µM in the assay on MS751 cells (setting [1]), greater than 10 µM in the assay on 3T3 cells (read-out: MTT Assay IC50 3T3) and less than 0.1 µM in the assay with Z138 cells (read-out: MTT Assay IC50 Z-138).
Regarding `Nc1ccc(/C=C/C(=O)NCc2cc3cc(-c4ccc(C(=O)N5CCC[C@H]5C(F)(F)F)cn4)cc(C(F)(F)F)c3o2)cn1` [Compound 622, (S,E)-3-(6-aminopyridin-3-yl)-N-((7-(trifluoromethyl)-5-(5-(2-(trifluoromethyl)pyrrolidine-1-carbonyl)pyridin-2-yl)benzofuran-2-yl)methyl)acrylamide], the IC50 was greater than 10 µM in the assay on MS751 cells (setting [1]), greater than 10 µM in the assay on 3T3 cells (read-out: MTT Assay IC50 3T3) and 5 to 10 µM with Z138 cells (read-out: MTT Assay IC50 Z-138).
